US20100003223A1, “METHOD FOR THE PRODUCTION OF MULTICOMPONENT STEM CELLS, RELATIVE KITS AND USES IN THE MEDICAL FIELD” (Metapontium Agrobios S.R.L., priority 2006, published 2010)

What was measured:
[1] = system: adipose cells; assay: Cell growth determination by BrdU incorporation; assay type: cell-based, human; details: adipose cells treated
[2] = system: mature adipose cells; assay: Morphological analysis of treated cultures by optical (phase contrast) microscopy
Method: Human pre-adipocytes and embryonic cell lines 3T3-L1 were sown at a density of 5×10^3 cells/cm^2 and cultivated in Petri plates in a proliferative medium (DMEM-F12, 10% Fetal Calf Serum (FCS), 1% antibiotic-fungizone (AF)) until the maximum cell confluence is reached. The differentiative induction is obtained by 48 hour treatment in specific medium consisting of DMEM, 10% Fetal Bovine Serum (FBS), 1 AF and specific differentiating factors (insulin, isobutylmethylxanthine, dexamethasone, indomethacin). The mature differentiated form (univacuolar phenotype) is reached after culture of 7-10 days in maintenance medium, free of adipogenic inductive agents. Immunofluorescence studies verify the expression of leptin, a hormone typically expressed by adipocytes in adult phase.
The mature adipose cells were maintained in a culture with DMEM, 10% FBS, 1 AF for two weeks, under continuous stimulation of 5′ Azacytidine at molar concentrations of 0.1 μM, 1 μM, 10 M, 100 μM, 125 μM, 150 μM, 175 μM, 250 μM.

[3] = system: embryoid bodies; details: 1 μM, 6 hours; cited from earlier work
[4] = system: adipocytes; assay: Determination of cell apoptosis (TACS Klenow In Situ Apoptotic Detection kit); assay type: cell-based, human
[5] = system: late-phase adipogenic markers (leptin, GLUT-4); assay: Semiquantitative PCR / RT-PCR of adipogenic marker expression; assay type: cell-based, human; details: preliminary results; FIG. 1: Ob gene (leptin), 175 μM
Method: In order to amplify the cDNA obtained from the 5-Aza cultures treated, the following were used: • Eppendorf thermocycler Amplifier; • Specific primers designed with the help of the PrimerQuest program (http://biotools.idt.com) and Nucleotide database consultation (http://www.ncbi.nlm.nih.gov) and BLAST (Basic Local Alignment Search Tool) (http://www.ncbi.nlm.nih.gov/BLAST/).
The primers were purchased from New England Biolabs.
Amplification conditions: 95° C. for 10 minutes (initial denaturation), 30 cycles of 95° C. for 30 seconds (denaturation), 52° C. for 45 seconds (annealing), 72° C. for 45 seconds (extension), 72° C. for 10 minutes (final extension). The reaction mixture was prepared with 1 μl of cDNA, 1 μl of dNtPs Mix (10 mM), 1.25 μl of MgCl2 solution (25 mM), 1.25 μl of buffer 10×, 0.2 μl of Ampli Taq Gold (5U μl) (Applied Biosystem), 1 μl of specific sense primer and 1 μl of antisense primer (10 μM), […] of H2O RNase free in a final volume of 12.5 μl.
The expression of the late-phase adipogenic markers (leptin, GLUT-4), precocious-phase markers (PPAR-γ, CEBP-α) and markers typical of the undifferentiated embryonic state (OCT4, SOX2, NANOG, SSEA-1, alkaline phosphatase) was evaluated by means of PCR and RT-PCR.

Nc1ncn([C@@H]2O[C@H](CO)[C@@H](O)[C@H]2O)c(=O)n1 [5-Azacytidine, 5′ Aza 2′ cytidine]
cell proliferation by incorporated BrdU [1]: Cell proliferation is observed
apoptosis of treated cultures (FIG. 7) ([2]; 250 μM): a high apoptotic degree is observed
cell damage and/or cell proliferation (FIG. 8) ([2]; doses ≦0.1 μM): no signs of cell damage and/or cell proliferation
morphology of the plate ([2]; mainly at 1-10 μM and higher than 100 μM, 10 days of treatment, preliminary results): a change in the morphology of the plate
colony growth process and sensitivity to LIF [3]: re-established the colony growth process typical of stem cells and the sensitivity to LEUKEMIA INHIBITORY FACTOR (LIF)
apoptotic phenomena ([4]; 125 μM, 25 hours after treatment): 15%
apoptotic phenomena ([4]; 125 μM, 48 hours after treatment): 15%
apoptotic phenomena ([4]; 125 μM, 72 hours after treatment): 10%
apoptotic phenomena ([4]; 150 μM, 25 hours after treatment): 22%
apoptotic phenomena ([4]; 150 μM, 48 hours after treatment): 28%
apoptotic phenomena ([4]; 150 μM, 72 hours after treatment): 10%
apoptotic phenomena ([4]; 175 μM, 25 hours after treatment): 38%
apoptotic phenomena ([4]; 175 μM, 48 hours after treatment): 41%
apoptotic phenomena ([4]; 175 μM, 72 hours after treatment): 10%
expression of the differentiative late-phase adipogenic markers [5]: a reduction in the expression
